Marks after values point to notes of the source that are not given here.
Assays:
[1] = system: isolated Langendorff-perfused rat hearts; assay: Ex vivo Langendorff-perfused rat heart, cardiac performance; settings: for ∆% +dP/dtmax / ∆% LVDP / ∆% −dP/dtmax: increase vs. control; for LVDP: isolated rat heart, mean ± SD, n = 6
Description: The cardiac contractility and safety of prodrugs 3–5 were evaluated on the myocardium in normal isolated rat hearts with LZDO as a positive control. Prodrugs 3–5 exerted positive inotropic effects in a dose-dependent manner. The increased rate in left ventricular developed pressure (LVDP, accepted as contractile force), +dP/dtmax (used as an index of contractility), the maximum rate of pressure decrease of the left ventricle ([…], used as an index of diastolic function) and the heart rate (HR, used as an index of heart muscle oxygen consumption) of these compounds vs. control are listed in Table 1.
All commercial reagents and solvents were used without further purification unless otherwise specified. Melting points were determined using a model Buchi B-450 apparatus. ESI-MS were recorded on a TOF mass spectrometer (Applies-Biosystem Mariner). IR spectra were acquired by using a THERMO IR spectrometer Model Nicolet-100. ^1H- and ^13C-NMR spectra (500/125 MHz) were recorded on a Bruker Advance 500 spectrophotometer. Mass spectra were recorded on a ZAB-HS mass spectrometer and are reported as m/z values. HPLC analysis was conducted on a Waters 2695 HPLC instrument equipped with a UV detector (model 2489). LZDO and prodrugs 3–5 were analysed by HPLC, and their purity was confirmed to be greater than 98.0%. In vitro metabolic stability analysis was conducted by a HPLC method, using stock standard solutions of LZDO and prodrugs that were prepared in water at a concentration of 30 mM. The positive inotropic effects on the myocardium of LZDO and prodrugs 3–5 in vitro were evaluated on Langendorff-perfused hearts isolated from normal Sprague-Dawley rats. A HPLC method was applied to measure the rat plasma concentrations of LZDO and prodrug 3 after intragastric administration of prodrug 3 in the rats.
Sprague-Dawley adult male rats weighing 260–320 g were anaesthetised by intraperitoneal administration of 20% urethane (1.2 g/kg). The hearts were quickly removed and placed into an ice-cold modified buffer until contractions ceased. The heart was cleaned of surrounding tissues, mounted on the aortic cannula of the Langendorff perfusion system apparatus, and perfused with oxygenated buffer (mM): NaCl 117, KCl 5.7, CaCl2 1.8, MgCl2 1.7, NaHCO3 4.4, NaH2PO4 1.5, HEPES 20 and glucose 11. The buffer was equilibrated with 95% O2 and 5% CO2 and adjusted to pH 7.4 with NaOH before it entered the heart. An epicardial electrogram was registered using two stainless steel electrodes, one attached to the apex of the heart and the other to the aortic cannula. To obtain an isovolumetrically beating preparation, a latex balloon filled with water and connected by a catheter to a transducer was inserted through the left atrium into the left ventricle and inflated to provide an end-diastolic pressure between 8 and 12 mm Hg. Before each experimental protocol was initiated, the isolated hearts were set at a mean arterial pressure of 60–80 mm Hg and allowed to stabilise at 37 °C for 40–60 min. The isolated rat hearts were then perfused in sequence with 1, 10, and 100 μM of LZDO and prodrugs 3–5 in each group. A RM6240B/C four channel physiological recording instrument (Chengdu Instrument Factory, Chengdu, China) was used for continuous recording of LVSP, LVEDP, HR (derived from electrogram), +dP/dtmax and −dP/dtmax throughout the experiments. The criteria for established stability were LVDP > 50 mmHg, +dP/dtmax > 1,600 mmHg·s^−1, heart rate > 180 beats·min^−1 and normal sinus rhythm. The hearts were not studied if they had weak contractility (+dP/dtmax < 1,600 mmHg·s^−1) and severe arrhythmia. Diastolic balloon pressure was maintained at 8 mmHg. LVDP was calculated as the difference between the systolic and diastolic pressures. The results are expressed as the mean value of hemodynamic variables (n = 6). Statistical analysis was performed using SPSS for Windows (version 13.0). Data were analyzed by One-way ANOVA. […]

[2] = Pharmacokinetics of LZDO in rats after intragastric administration of prodrug 3; assay type: in vivo, rat; settings: rats (data not shown)
Description: Pharmacokinetic parameters including half-life, clearance, and bioavailability are important properties of a drug candidate. […] The major pharmacokinetic parameters of LZDO were calculated using a noncompartment model based on statistical moment. The pharmacokinetic parameters of LZDO after intragastric administration of prodrug 3 at 10, 20 and 40 mg/kg in rats are summarized in Table 2. The pharmacokinetic parameters of LZDO after intragastric administering LZDO at 10, 20 and 50 mg/kg in rats are summarized in Table 3 [19]. Prodrug 3 was converted completely within 2 h in rats (data not shown).
Sprague-Dawley rats (male, weighing 200 ± 20 g) were obtained from Slack Laboratory Animal Site (Shanghai, China) and kept in an environmentally controlled breeding room for at least five days before experimentation. The rats were fasted overnight but with free access to water before the test. Animal welfare and experimental procedures were strictly in accordance with the guide for the care and use of laboratory animals. […] The collected blood samples were pretreated by the aforementioned method (sample dilutions were made when necessary) and the concentrations of LZDO and prodrug 3 in each sample were finally determined based on the validated HPLC method. […]

| SMILES | +dP/dtmax ([1]; 1 μM) | HR ([1]; 1 μM) [beat·min^−1] | −dP/dtmax ([1]; 1 μM) | ∆% +dP/dtmax ([1]; 1 μM) [%] | ∆% LVDP ([1]; 1 μM) [%] | ∆% −dP/dtmax ([1]; 1 μM) [%] | LVDP ([1]; 1 μM) | +dP/dtmax ([1]; 10 μM) | HR ([1]; 10 μM) [beat·min^−1] | −dP/dtmax ([1]; 10 μM) | ∆% +dP/dtmax ([1]; 10 μM) [%] | ∆% LVDP ([1]; 10 μM) [%] | ∆% −dP/dtmax ([1]; 10 μM) [%] | LVDP ([1]; 10 μM) | +dP/dtmax ([1]; 100 μM) | HR ([1]; 100 μM) [beat·min^−1] | −dP/dtmax ([1]; 100 μM) | ∆% +dP/dtmax ([1]; 100 μM) [%] | ∆% −dP/dtmax ([1]; 100 μM) [%] | LVDP ([1]; 100 μM) | further results |
| --- | --- | --- | --- | --- | --- | --- | --- | --- | --- | --- | --- | --- | --- | --- | --- | --- | --- | --- | --- | --- | --- |
| CC(=O)OCc1nc(C)c(COC(C)=O)nc1C [compound 3] | 1,641 ± 29 mmHg/s | 203 ± 15 | −1,139 ± 76 mmHg/s | 1.9 ± 0.5 | 15.0 ± 5.5 | 4.9 ± 5.9 | 63 ± 2 ^b mmHg | 1,768 ± 91 ^bd mmHg/s | 204 ± 14 | −1,184 ± 75 ^a mmHg/s | 9.8 ± 7.0 | 26.3 ± 7.7 | 9.0 ± 5.1 | 69 ± 1.1 ^bd mmHg | 2,123 ± 82 ^bdf mmHg/s | 205 ± 26 | −1,313 ± 70 ^bdf mmHg/s | 31.8 ± 5.3 | 20.9 ± 5.1 | 79 ± 1.6 ^bdf mmHg | ∆% LVDP ([1]; 100 μM): 44.7 ± 6.6%; positive inotropic effect on the myocardium ([1]; normal isolated rat hearts, 1, 10, 100 μM): most potent prodrug; time to complete conversion of prodrug in rats [2]: ≤ 2 h |
| Cc1nc(COC(=O)C(C)C)c(C)nc1COC(=O)C(C)C [compound 4, 2,5-Di-iso-butyryloxymethyl-3,6-dimethylpyrazine] | 1,669 ± 103 mmHg/s | 213 ± 46 | −1,101 ± 102 mmHg/s | 2.2 ± 3.4 | 17.4 ± 9.8 | 5.6 ± 8.3 | 63 ± 3 ^b mmHg | 1,765 ± 52 ^a mmHg/s | 196 ± 16 | −1,196 ± 54 ^bc mmHg/s | 4.9 ± 5.4 | 14.2 ± 10.0 | 9.9 ± 9.5 | 60 ± 4 ^a mmHg | 1,952 ± 49 ^bdf mmHg/s | 191 ± 29 | −1,399 ± 61 ^bdf mmHg/s | 9.0 ± 8.9 | 16.7± 15.2 | 73 ± 2.3 ^bdf mmHg | – |
| Cc1nc(COC(=O)c2ccccc2)c(C)nc1COC(=O)c1ccccc1 [compound 5, 2,5-Dibenzoyloxymethyl-3,6-dimethylpyrazine] | 1,688 ± 95 mmHg/s | 189 ± 30 | −1,095 ± 45 mmHg/s | 1.0 ± 1.1 | 5.3 ± 3.3 | 1.3 ± 0.8 | 55 ± 5 mmHg | 1,831 ± 14 ^bd mmHg/s | 196 ± 40 | −1,245 ± 48 ^bd mmHg/s | 9.9 ± 5.9 | 13.9 ± 7.4 | 15.3 ± 2.8 | 59 ± 2.5 ^b mmHg | 1,962 ± 70 ^bdf mmHg/s | 213 ± 41 | −1,314 ± 63 ^bde mmHg/s | 17.6 ± 6.8 | 21.7 ± 7.2 | 64 ± 2.4 ^bde mmHg | ∆% LVDP ([1]; 100 μM): 24.5 ± 11.2% |

Reference: paper PMC6270099, “Synthesis, Biological Evaluation, and Pharmacokinetic Study of Novel Liguzinediol Prodrugs” (Molecules, 2013)
